Measured values reported in ChEMBL document CHEMBL5665443, “Enzyme Inhibitor Single Concentration assay results for EUbOPEN Chemogenomics Library” (2024).

Legend:
Settings in all cases: Compound Concentration 10.0 uM, Hit No
[1] = molecular target: G/T mismatch-specific thymine DNA glycosylase (Homo sapiens) (UniProt Q13569);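 also: human TDG cleavage of quenched duplex DNA oligonucleotides coupled to APE1, strand release read as fluorescence at 594 nm, inhibition of TDG activity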
[2] = molecular target: N-glycosylase/DNA lyase (Homo sapiens) (UniProt O15527);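 also: OGG1 cleavage of a quenched duplex DNA oligonucleotide, coupled to APE1 for strand incision, read as fluorescence at 594 nm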
[3] = molecular target: T1, Adenine DNA glycosylase (Homo sapiens) (UniProt Q9UIF7);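 also: human MUTYH activity read as 594 nm fluorescence from cleavage and release of a quenched DNA duplex, coupled with APE1 for strand incision, lower signal meaning inhibition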
T1 sequence (whole entry): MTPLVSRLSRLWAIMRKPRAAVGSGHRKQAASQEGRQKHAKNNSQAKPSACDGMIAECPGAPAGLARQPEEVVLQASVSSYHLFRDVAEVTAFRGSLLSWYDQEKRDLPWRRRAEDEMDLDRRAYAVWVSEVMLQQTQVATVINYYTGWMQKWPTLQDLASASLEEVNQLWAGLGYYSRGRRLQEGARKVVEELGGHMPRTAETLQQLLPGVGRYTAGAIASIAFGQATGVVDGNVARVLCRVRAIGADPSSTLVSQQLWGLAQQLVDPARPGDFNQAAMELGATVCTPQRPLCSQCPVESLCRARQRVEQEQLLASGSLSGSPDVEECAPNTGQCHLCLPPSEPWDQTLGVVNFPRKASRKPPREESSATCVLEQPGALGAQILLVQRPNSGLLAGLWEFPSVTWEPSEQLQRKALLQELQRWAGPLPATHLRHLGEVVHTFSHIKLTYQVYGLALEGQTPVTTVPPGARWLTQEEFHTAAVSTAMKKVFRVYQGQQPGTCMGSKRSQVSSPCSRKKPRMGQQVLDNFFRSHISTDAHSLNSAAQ

[4] = molecular target: DNA-3-methyladenine glycosylase (Homo sapiens) (UniProt P29372);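 also: enzyme assay where MPG cuts a quenched duplex DNA oligonucleotide probe, paired with APE1 for strand incision and turnover, read as fluorescence at 594 nm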
[5] = molecular target: Endonuclease 8-like 1 (Homo sapiens) (UniProt Q96FI4);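 also: fluorescence at 594 nm from quenched duplex DNA oligonucleotides released by NEIL1 cleavage and strand separation, reported as reduction of this enzyme activity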
[6] = molecular target: T2, Endonuclease III-like protein 1 (Homo sapiens) (UniProt P78549);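 also: enzyme assay tracking NTHL1 cutting and release of a quenched double-stranded DNA oligo substrate, read as fluorescence at 594 nm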
T2 sequence (whole entry): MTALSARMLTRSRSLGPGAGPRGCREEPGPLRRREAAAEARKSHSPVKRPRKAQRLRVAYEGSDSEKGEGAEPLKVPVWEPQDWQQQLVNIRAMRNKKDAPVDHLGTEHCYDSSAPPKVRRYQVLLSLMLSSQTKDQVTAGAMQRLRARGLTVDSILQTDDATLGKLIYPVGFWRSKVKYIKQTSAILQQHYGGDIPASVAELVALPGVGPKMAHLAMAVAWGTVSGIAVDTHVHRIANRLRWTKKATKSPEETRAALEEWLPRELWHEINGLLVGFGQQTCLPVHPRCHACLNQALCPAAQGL

[7] = molecular target: T3, Endonuclease 8-like 2 (Homo sapiens) (UniProt Q969S2);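 also: fluorescence at 594 nm reports NEIL2 cutting and release of a quenched double-stranded DNA oligo substrate, reduced signal read as inhibition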
T3 sequence (whole entry): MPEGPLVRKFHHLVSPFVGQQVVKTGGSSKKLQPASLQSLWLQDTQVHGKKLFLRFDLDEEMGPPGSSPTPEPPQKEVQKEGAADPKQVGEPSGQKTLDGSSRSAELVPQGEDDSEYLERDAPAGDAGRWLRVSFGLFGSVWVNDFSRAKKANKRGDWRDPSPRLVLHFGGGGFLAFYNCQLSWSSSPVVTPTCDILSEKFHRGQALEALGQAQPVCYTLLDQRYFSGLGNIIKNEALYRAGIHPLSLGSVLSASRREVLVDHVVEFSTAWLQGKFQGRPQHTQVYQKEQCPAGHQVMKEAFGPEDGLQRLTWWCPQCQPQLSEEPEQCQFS

[8] = molecular target: Uracil-DNA glycosylase (Homo sapiens) (UniProt P13051);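 also: UNG excision on a quenched double-stranded DNA oligo probe, with APE1 added for strand incision and turnover, read as fluorescence at 594 nm as strands separate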
[9] = molecular target: T4, Single-strand selective monofunctional uracil DNA glycosylase (Homo sapiens) (UniProt Q53HV7);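 also: enzymatic SMUG1 assay coupled with APE1, reading fluorescence at 594 nm released when a quenched double-stranded DNA oligonucleotide substrate is cleaved and separated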
T4 sequence (whole entry): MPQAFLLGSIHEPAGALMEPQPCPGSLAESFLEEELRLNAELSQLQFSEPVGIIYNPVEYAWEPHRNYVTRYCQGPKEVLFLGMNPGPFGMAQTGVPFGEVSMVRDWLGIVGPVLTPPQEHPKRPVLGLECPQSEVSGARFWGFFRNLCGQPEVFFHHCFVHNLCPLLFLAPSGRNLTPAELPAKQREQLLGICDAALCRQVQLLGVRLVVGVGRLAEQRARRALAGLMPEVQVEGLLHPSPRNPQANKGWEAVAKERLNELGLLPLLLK

[10] = molecular target: Methyl-CpG-binding domain protein 4 (Homo sapiens) (UniProt O95243);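 also: MBD4 activity read as fluorescence at 594 nm from cleavage and release of a quenched duplex DNA oligonucleotide, with APE1 coupled to incise the strand and raise turnover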
Chain of Methyl-CpG-binding domain protein 4 (Homo sapiens) (O95243 whole entry, the tested form may be a part): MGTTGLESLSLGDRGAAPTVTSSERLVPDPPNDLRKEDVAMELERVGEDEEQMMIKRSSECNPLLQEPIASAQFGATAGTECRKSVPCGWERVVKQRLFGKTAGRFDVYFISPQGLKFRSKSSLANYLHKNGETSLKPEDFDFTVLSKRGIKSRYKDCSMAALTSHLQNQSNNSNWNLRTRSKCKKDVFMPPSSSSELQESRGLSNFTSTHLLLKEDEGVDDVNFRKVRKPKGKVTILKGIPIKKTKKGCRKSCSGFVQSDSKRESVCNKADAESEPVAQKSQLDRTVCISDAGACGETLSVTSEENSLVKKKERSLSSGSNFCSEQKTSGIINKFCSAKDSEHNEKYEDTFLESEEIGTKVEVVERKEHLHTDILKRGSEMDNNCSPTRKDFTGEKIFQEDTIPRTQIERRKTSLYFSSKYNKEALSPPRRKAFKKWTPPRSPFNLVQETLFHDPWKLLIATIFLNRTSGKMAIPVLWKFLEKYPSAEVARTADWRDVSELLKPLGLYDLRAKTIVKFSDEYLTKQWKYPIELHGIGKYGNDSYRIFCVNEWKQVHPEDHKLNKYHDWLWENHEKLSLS

Chain of N-glycosylase/DNA lyase (Homo sapiens) (O15527 whole entry): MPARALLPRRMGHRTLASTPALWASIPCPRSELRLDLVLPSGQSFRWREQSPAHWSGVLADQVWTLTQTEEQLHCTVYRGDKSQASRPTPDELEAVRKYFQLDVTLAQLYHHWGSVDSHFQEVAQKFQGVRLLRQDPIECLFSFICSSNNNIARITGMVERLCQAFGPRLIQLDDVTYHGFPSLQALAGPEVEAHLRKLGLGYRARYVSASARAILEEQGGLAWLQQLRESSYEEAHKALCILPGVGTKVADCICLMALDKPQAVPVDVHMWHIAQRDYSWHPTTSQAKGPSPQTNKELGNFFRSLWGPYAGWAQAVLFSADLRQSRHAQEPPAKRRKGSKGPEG
Chain of Uracil-DNA glycosylase (Homo sapiens) (P13051 whole entry): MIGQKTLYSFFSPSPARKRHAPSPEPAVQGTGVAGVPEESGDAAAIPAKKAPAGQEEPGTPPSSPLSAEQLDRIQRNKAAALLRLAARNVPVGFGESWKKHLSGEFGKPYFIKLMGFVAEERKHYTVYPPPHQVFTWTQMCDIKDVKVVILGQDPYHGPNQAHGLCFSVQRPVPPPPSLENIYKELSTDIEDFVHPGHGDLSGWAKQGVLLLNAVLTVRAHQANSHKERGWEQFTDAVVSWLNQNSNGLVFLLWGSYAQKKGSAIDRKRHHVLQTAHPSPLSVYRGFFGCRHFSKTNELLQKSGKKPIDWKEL
Chain of DNA-3-methyladenine glycosylase (Homo sapiens) (P29372 whole entry): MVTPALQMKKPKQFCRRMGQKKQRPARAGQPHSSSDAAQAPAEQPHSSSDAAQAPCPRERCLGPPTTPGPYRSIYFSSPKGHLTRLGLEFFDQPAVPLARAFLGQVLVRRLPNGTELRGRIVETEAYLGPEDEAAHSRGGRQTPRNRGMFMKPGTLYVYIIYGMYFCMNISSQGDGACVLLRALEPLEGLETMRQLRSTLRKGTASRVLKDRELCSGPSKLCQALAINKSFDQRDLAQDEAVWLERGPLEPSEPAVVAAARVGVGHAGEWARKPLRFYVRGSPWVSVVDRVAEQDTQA
Chain of G/T mismatch-specific thymine DNA glycosylase (Homo sapiens) (Q13569 whole entry): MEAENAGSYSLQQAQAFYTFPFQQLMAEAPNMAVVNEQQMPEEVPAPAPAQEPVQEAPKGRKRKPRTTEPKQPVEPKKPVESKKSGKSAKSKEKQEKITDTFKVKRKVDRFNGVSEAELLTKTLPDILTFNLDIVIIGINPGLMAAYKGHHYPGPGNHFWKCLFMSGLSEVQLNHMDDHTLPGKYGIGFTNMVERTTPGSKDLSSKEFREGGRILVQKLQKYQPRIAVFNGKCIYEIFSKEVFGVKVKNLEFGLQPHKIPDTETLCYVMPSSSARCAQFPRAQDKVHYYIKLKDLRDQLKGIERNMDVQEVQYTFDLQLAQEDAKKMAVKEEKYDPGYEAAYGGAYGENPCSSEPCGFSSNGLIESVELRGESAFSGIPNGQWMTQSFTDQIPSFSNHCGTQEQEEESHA
Chain of Endonuclease 8-like 1 (Homo sapiens) (Q96FI4 whole entry): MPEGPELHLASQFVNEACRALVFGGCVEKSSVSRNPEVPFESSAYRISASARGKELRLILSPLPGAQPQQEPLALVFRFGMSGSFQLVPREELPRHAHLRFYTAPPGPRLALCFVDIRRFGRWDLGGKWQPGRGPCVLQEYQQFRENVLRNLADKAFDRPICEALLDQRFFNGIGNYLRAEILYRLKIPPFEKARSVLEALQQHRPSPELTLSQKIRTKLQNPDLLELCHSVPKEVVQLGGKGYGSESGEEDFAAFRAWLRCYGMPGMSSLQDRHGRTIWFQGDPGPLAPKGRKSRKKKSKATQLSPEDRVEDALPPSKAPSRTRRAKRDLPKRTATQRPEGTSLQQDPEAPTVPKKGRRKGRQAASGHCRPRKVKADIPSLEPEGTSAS

Row | Molecule | inhibition [1] [%] | inhibition [2] [%] | inhibition [3] [%] | inhibition [4] [%] | inhibition [5] [%] | inhibition [6] [%] | inhibition [7] [%] | inhibition [8] [%] | inhibition [9] [%] | inhibition [10] [%]
1 | O=C(O)C1CN(Cc2ccc(-c3nc4cc(Cc5ccccc5F)ccc4s3)c(F)c2)C1 | -3.37 | -3.25 | -0.363 | -8.77 | -0.945 | 11.4 | -3.48 | – | – | –
2 | H-RPPGFSPFR-OH | 26.9 | -0.678 | 29 | 15.2 | 4.01 | 1.39 | -1.37 | 2.31 | 5.92 | –
3 | CC(C)c1ccc(CC(=O)N[C@H](C)c2ccc(OCC(F)(F)F)cn2)cc1 | -9.7 | -4.46 | -5.06 | 9.35 | 3.42 | 8 | -3.66 | -0.689 | 4.45 | –
4 | O=C(Nc1cc(C(F)(F)F)cc(C(F)(F)F)c1)c1cc(Cl)ccc1O | – | 28.6 | -9.19 | 9.82 | 1.2 | 6.35 | -3.41 | -1.16 | 4.73 | –
5 | Cc1cnc(-c2cc(N3CCN(C(=O)CCS(C)(=O)=O)CC3)ncc2Cl)c(C)c1 | – | -3.06 | 0.917 | -9.96 | – | 15.8 | -4.23 | – | – | –
6 | O=c1ccn([C@@H]2O[C@H](COP(=O)(O)OP(=O)(O)OP(=O)(O)OP(=O)(O)OC[C@H]3O[C@@H](n4ccc(=O)[nH]c4=O)[C@H](O)[C@@H]3O)[C@@H](O)[C@H]2O)c(=O)[nH]1 | 3.7 | -1.8 | -6.25 | 0.18 | 3.21 | 20.2 | -3.48 | – | – | –
7 | CC[S+]([O-])c1nc(-c2cccc(OCc3ccccc3)c2)cc(C(F)(F)F)n1 (stereo not given) | 4.54 | 6.41 | -4.2 | -6.11 | 5.43 | -3.94 | 10.8 | -7.73 | 4.67 | –
8 | CN(C(=O)/C=C/c1ccoc1)[C@@H]1CC[C@@]2(O)[C@H]3Cc4ccc(O)c5c4[C@@]2(CCN3CC2CC2)[C@H]1O5 | 13.5 | -1.76 | 8.72 | 5.81 | 14.2 | 1.92 | 1.76 | -6.84 | -7.79 | –
9 | CC(C)NCC(O)c1ccc(N)c(C#N)c1 (stereo not given) | -4.14 | -2.67 | 4.24 | 0.373 | -4.21 | 12.9 | -8.72 | – | -9.04 | –
10 | C[C@@H](NCCc1ccc(O)cc1)[C@@H](O)c1ccc(O)cc1 (relative stereo) | 5 | -4.18 | 11.7 | -3.37 | -5.25 | 17.3 | 6.25 | – | – | –
11 | NC(=O)c1ccc(CNC(=O)NC[C@H]2CN(Cc3ccc(Cl)c(Cl)c3)CCO2)cc1 | 19.2 | -7.25 | 5.52 | -0.36 | 7.06 | 15.8 | 16.2 | – | – | –
12 | CCC(=O)OCC(=O)[C@@]1(OC(=O)CC)[C@@H](C)C[C@H]2[C@@H]3CCC4=CC(=O)C=C[C@]4(C)[C@@]3(Cl)[C@@H](O)C[C@@]21C | -4.42 | -5.93 | 11.3 | 2.96 | 7.21 | 22.4 | 7 | – | – | –
13 | NCCc1ccc(O)c(O)c1 | 8.49 | -1.68 | 17.9 | -0.746 | 2.32 | 21 | -3.23 | -7.47 | -4.83 | –
14 | c1ccc2c(c1)CCC[C@H]2Nc1nc2ccccc2[nH]1 | 8.8 | 1.89 | 2.96 | 9.2 | 4.46 | 4.7 | 3.47 | -4.72 | -5.61 | –
15 | COC(c1ccccc1)(c1ccccc1)[C@H](Oc1nc(C)cc(C)n1)C(=O)O | 14.5 | 1.14 | 23.3 | 4.85 | 9.14 | 6.32 | 10.8 | -5.94 | -3.28 | –
16 | C[C@@H](OC[C@@]1(c2ccccc2)CC[C@]2(CCC(=O)N2)CN1)c1cc(C(F)(F)F)cc(C(F)(F)F)c1 | 9.1 | -0.784 | 10.9 | -7.57 | -1.98 | -6.14 | 6.75 | -7.13 | -1.58 | –
17 | COc1ccc(C2(O)OC(=O)C(c3ccc4c(c3)OCO4)=C2Cc2cc(OC)c(OC)c(OC)c2)cc1 (stereo not given) | 8.23 | -9.68 | 22.7 | 13.2 | -4.95 | 15.1 | – | -1.01 | – | –
18 | Cc1ccc(S(=O)(=O)Nc2ccc(-n3nc(C(F)(F)F)cc3C(F)(F)F)cc2)cc1 | – | 21.7 | -4.85 | 20 | 3.57 | 16.2 | 5 | -1.93 | 19.1 | –
19 | Cc1ccc(O)c([C@H](CCN(C(C)C)C(C)C)c2ccccc2)c1 | 2.93 | -3.4 | 8.6 | -5.07 | 5.28 | -3.21 | 2.01 | – | – | –
20 | C/N=C(/NC#N)NCCSCc1csc(NC(=N)N)n1 | 1.2 | -8.12 | -6.76 | -5.07 | -6.13 | -9.8 | – | – | -3.81 | –
21 | Cc1ccccc1-c1cc(N2CCN(C)CC2)ncc1N(C)C(=O)C(C)(C)c1cc(C(F)(F)F)cc(C(F)(F)F)c1 | -5.37 | -7.29 | -1.13 | -7.15 | 0.537 | 21.7 | 1.76 | – | – | –
22 | CN(C)CC[C@@H](c1ccc(Cl)cc1)c1ccccn1 | 6.86 | -3.11 | 11.5 | 0.18 | -2.28 | 6.32 | 12 | -8.86 | – | –
23 | COc1ccc2[nH]cc(CCNC(C)=O)c2c1 | 5.88 | -4.66 | 19.4 | -3.95 | 1.13 | – | 1.51 | -7.83 | -7.74 | -1.65
24 | COc1cc2nc(N3CCN(C(=O)c4ccco4)CC3)nc(N)c2cc1OC | 4.76 | 0.771 | 14 | 11.1 | 5.73 | – | 10 | -8.11 | -2.6 | 7.24
